Laboratory results as given in ChEMBL document CHEMBL1201862, “PubChem BioAssay data set” (2004).
Values belong to the compound of their own block, whether it stands above or below them. Activity calls are given as the source filed them.

Experiments:
[1] = target: T1, Tyrosyl-DNA phosphodiesterase 2 (Homo sapiens, UniProt O95551); experiment: human TDP2 enzyme inhibitors, dose response, biochemical, epi absorbance, IC50 (AID 743297)
T1 sequence (O95551 whole entry): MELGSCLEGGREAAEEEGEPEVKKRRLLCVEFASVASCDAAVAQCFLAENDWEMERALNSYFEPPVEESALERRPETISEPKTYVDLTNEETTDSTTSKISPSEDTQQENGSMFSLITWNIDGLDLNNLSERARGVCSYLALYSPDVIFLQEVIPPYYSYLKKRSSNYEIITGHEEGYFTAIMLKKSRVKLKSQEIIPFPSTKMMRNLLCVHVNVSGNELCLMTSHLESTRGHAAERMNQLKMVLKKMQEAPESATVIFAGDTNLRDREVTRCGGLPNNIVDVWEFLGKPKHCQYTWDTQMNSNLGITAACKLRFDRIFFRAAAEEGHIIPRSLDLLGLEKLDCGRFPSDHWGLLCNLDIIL

[2] = target: Heat shock protein HSP 90-alpha (Homo sapiens, UniProt P07900); experiment: Luminescence-based dose response biochemical high throughput screening assay for inhibitors of the Heat Shock Protein 90 (HSP90). [Related pubchem assays: 1831 (Summary AID.), 1846 (Confirmation screen.), 1789 (Primary screen.)]
[3] = target: Maternal embryonic leucine zipper kinase (Homo sapiens, UniProt Q14680); assay type: functional
Chain of Maternal embryonic leucine zipper kinase (Q14680 whole entry): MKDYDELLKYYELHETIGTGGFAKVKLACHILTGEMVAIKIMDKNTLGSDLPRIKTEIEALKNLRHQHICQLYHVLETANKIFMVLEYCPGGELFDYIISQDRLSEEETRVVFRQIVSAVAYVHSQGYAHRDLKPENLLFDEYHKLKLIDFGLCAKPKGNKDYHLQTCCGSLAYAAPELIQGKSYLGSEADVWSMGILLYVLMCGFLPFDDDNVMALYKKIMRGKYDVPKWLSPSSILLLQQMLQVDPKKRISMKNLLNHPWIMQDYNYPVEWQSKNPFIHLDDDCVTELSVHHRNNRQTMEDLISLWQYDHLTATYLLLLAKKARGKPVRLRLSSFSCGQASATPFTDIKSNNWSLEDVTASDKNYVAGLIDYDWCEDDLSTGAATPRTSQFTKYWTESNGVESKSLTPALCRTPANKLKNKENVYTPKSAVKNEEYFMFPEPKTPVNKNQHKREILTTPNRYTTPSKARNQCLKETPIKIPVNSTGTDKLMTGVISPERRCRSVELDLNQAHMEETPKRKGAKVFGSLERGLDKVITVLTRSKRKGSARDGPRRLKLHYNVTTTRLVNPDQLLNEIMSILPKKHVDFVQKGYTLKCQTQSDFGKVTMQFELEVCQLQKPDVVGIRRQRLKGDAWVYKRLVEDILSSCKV

[4] = target: Testis-specific serine/threonine-protein kinase 2 (Homo sapiens, UniProt Q96PF2); assay type: functional;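 also: part of the Navigating the Kinome panel, target entry STK22B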
Chain of Testis-specific serine/threonine-protein kinase 2 (Q96PF2 whole entry): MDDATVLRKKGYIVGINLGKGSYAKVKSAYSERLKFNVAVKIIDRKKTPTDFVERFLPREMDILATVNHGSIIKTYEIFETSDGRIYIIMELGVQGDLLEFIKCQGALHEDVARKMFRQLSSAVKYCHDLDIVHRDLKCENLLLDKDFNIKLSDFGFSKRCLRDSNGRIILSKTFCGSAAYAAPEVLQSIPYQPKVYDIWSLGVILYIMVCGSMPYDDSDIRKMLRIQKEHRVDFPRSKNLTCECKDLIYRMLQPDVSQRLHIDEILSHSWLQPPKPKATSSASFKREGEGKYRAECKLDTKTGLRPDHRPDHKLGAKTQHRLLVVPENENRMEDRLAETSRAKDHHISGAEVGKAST

[5] = target: Macrophage colony-stimulating factor 1 receptor (Homo sapiens, UniProt P07333); assay type: functional;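 also: value comes from the Navigating the Kinome screening panel, CSF1R member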
[6] = target: Serine/threonine-protein kinase DCLK1 (Homo sapiens, UniProt O15075); assay type: functional;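 also: affinity for DCLK1 (listed as DCAMKL1) measured as one member of a kinome-wide kinase profiling panel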
[7] = target: Serine/threonine-protein kinase pim-3 (Homo sapiens, UniProt Q86V86); assay type: functional;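 also: value obtained as one member of a broad kinase panel profiling effort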
[8] = target: Calcium/calmodulin-dependent protein kinase type II subunit delta (Homo sapiens, UniProt Q13557); assay type: functional
Chain of Calcium/calmodulin-dependent protein kinase type II subunit delta (Q13557 whole entry): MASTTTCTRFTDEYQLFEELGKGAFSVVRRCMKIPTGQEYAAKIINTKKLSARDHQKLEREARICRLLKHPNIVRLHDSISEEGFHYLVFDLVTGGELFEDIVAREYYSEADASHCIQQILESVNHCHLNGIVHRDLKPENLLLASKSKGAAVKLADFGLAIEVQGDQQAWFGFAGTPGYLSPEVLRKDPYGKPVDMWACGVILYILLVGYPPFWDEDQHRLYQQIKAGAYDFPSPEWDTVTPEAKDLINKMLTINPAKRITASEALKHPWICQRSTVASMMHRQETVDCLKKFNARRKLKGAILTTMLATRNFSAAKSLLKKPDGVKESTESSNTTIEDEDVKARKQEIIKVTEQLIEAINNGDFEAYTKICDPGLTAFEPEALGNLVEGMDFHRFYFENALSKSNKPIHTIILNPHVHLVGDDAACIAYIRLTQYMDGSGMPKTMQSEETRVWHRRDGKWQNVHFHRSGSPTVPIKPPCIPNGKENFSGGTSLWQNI

[9] = target: Receptor-type tyrosine-protein kinase FLT3 (Homo sapiens, UniProt P36888); assay type: functional;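 also: FLT3 was tested as one member of a kinome-wide kinase panel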
[10] = target: Cyclin-dependent kinase 7 (Homo sapiens, UniProt P50613); assay type: functional;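 also: value comes from a kinome-wide kinase profiling panel in which CDK7 is one member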
[11] = target: cAMP-dependent protein kinase catalytic subunit PRKX (Homo sapiens, UniProt P51817); assay type: functional
Chain of cAMP-dependent protein kinase catalytic subunit PRKX (P51817 whole entry): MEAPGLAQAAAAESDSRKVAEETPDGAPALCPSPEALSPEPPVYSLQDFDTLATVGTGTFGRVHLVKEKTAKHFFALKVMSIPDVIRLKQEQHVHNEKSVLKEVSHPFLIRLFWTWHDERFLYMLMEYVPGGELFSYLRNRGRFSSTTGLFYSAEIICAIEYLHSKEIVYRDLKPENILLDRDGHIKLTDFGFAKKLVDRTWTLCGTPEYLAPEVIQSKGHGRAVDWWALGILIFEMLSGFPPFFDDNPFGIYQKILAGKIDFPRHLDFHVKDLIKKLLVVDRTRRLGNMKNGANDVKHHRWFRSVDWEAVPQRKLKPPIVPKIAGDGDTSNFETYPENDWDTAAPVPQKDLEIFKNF

Misshapen-like kinase 1 = Misshapen-like kinase 1 (Homo sapiens, UniProt Q8N4C8); assay type: functional;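 also: kinome panel screen with MINK as the panel member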
Chain of Misshapen-like kinase 1 (Q8N4C8 whole entry): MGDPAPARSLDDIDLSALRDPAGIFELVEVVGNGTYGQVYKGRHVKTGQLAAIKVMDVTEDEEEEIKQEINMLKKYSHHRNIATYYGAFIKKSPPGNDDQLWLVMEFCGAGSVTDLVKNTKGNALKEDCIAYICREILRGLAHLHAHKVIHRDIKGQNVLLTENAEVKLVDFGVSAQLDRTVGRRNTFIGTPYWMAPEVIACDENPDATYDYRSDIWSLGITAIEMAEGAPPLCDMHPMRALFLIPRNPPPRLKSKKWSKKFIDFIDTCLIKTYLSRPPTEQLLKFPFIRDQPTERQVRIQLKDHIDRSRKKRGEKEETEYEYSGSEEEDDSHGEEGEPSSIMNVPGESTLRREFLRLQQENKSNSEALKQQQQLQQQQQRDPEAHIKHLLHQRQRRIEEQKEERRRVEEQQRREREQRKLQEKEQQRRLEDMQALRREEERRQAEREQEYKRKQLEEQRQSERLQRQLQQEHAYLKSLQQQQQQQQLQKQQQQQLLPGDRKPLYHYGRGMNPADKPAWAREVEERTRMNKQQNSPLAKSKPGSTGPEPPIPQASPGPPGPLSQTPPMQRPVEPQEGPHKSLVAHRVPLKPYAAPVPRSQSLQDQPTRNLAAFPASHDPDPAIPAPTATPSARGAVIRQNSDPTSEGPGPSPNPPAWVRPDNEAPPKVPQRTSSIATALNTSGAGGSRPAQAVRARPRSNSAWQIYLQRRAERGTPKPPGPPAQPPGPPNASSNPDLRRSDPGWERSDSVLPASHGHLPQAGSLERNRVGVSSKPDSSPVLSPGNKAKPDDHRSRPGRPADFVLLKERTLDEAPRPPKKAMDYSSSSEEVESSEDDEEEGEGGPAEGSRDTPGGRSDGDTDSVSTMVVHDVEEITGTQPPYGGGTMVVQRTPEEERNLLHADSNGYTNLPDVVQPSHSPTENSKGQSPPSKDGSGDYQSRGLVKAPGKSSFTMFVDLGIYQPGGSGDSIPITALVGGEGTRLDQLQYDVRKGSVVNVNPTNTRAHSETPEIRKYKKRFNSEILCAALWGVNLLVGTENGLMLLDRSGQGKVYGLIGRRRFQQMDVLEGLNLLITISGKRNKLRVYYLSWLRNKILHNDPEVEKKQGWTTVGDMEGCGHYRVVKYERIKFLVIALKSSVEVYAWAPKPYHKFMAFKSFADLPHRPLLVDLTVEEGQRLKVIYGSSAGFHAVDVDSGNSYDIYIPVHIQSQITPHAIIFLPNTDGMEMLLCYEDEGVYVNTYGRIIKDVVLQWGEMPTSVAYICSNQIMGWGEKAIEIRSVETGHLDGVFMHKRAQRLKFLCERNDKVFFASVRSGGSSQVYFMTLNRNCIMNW

Ephrin type-A receptor 2 = Ephrin type-A receptor 2 (Homo sapiens, UniProt P29317); assay type: functional;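 also: EPHA2 tested as one member of a kinome-wide kinase panel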
[12] = target: Serine/threonine-protein kinase D2 (Homo sapiens, UniProt Q9BZL6); assay type: functional;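 also: measured against PRKD2 as one member of a kinome-wide kinase profiling panel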
[13] = target: MAP kinase-interacting serine/threonine-protein kinase 2 (Homo sapiens, UniProt Q9HBH9); assay type: functional
[14] = target: Serine/threonine-protein kinase TBK1 (Homo sapiens, UniProt Q9UHD2); experiment: Navigating the Kinome. Panel member name: TBK1; assay type: functional
[15] = target: High affinity nerve growth factor receptor (Homo sapiens, UniProt P04629); assay type: functional;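 also: NTRK1 tested as one member of a kinome-wide profiling panel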
[16] = target: Mitogen-activated protein kinase 14 (Homo sapiens, UniProt Q16539); assay type: functional;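 also: part of a kinome-wide panel, MAPK14 entry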
[17] = target: Homeodomain-interacting protein kinase 2 (Homo sapiens, UniProt Q9H2X6); assay type: functional;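 also: measured within a kinome-wide kinase profiling panel, HIPK2 being one panel member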
[18] = target: MAP kinase-activated protein kinase 5 (Homo sapiens, UniProt Q8IW41); assay type: functional;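 also: measured as one member of a kinome panel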
Chain of MAP kinase-activated protein kinase 5 (Q8IW41 whole entry): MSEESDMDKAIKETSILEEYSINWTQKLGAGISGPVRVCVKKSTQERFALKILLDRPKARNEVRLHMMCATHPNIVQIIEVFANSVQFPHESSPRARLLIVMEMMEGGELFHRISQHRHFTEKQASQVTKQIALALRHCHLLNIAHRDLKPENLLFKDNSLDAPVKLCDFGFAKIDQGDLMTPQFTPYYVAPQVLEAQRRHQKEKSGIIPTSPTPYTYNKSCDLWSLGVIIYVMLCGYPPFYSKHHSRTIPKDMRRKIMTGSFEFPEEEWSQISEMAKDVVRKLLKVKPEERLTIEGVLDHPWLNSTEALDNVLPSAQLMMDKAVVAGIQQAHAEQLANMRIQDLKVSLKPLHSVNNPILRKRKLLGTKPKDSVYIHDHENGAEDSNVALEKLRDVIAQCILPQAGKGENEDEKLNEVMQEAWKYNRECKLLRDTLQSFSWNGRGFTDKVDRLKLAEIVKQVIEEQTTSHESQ

[19] = target: Tyrosine-protein kinase Srms (Homo sapiens, UniProt Q9H3Y6); assay type: functional;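 also: SRMS measured as one member of a kinome-wide kinase profiling panel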
[20] = target: Serine/threonine-protein kinase pim-1 (Homo sapiens, UniProt P11309); assay type: functional
[21] = target: cGMP-dependent protein kinase 1 (Homo sapiens, UniProt Q13976); assay type: functional;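 also: value from a kinome panel screen with PRKG1 as the panel member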
[22] = target: Fibroblast growth factor receptor 3 (Homo sapiens, UniProt P22607); assay type: functional
Chain of Fibroblast growth factor receptor 3 (P22607 whole entry): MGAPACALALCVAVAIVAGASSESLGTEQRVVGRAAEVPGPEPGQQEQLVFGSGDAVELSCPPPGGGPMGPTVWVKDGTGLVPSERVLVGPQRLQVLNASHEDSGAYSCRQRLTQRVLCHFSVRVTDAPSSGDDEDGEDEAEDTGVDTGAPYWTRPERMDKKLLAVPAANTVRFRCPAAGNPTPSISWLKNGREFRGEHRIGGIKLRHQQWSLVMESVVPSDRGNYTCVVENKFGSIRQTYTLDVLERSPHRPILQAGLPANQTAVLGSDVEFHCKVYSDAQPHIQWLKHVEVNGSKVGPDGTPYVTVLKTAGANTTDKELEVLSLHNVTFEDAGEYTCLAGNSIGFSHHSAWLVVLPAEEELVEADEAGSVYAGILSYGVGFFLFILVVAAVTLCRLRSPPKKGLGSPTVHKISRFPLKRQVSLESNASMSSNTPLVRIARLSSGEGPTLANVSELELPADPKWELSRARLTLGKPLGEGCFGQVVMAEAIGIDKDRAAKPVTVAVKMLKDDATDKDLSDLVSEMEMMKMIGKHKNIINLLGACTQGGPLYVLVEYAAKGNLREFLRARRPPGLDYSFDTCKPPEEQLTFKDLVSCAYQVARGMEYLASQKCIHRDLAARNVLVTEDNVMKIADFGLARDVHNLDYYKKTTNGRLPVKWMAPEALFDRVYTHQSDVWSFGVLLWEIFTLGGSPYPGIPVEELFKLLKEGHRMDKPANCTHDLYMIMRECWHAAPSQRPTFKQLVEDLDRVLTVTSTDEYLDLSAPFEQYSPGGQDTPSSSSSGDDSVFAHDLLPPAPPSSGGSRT

Activated CDC42 kinase 1 = Activated CDC42 kinase 1 (Homo sapiens, UniProt Q07912); experiment: Navigating the Kinome. Panel member name: ACK1; assay type: functional
[23] = target: Cell division cycle 7-related protein kinase (Homo sapiens, UniProt O00311); assay type: functional;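 also: value obtained from a kinome-wide kinase panel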
Chain of Cell division cycle 7-related protein kinase (O00311 whole entry): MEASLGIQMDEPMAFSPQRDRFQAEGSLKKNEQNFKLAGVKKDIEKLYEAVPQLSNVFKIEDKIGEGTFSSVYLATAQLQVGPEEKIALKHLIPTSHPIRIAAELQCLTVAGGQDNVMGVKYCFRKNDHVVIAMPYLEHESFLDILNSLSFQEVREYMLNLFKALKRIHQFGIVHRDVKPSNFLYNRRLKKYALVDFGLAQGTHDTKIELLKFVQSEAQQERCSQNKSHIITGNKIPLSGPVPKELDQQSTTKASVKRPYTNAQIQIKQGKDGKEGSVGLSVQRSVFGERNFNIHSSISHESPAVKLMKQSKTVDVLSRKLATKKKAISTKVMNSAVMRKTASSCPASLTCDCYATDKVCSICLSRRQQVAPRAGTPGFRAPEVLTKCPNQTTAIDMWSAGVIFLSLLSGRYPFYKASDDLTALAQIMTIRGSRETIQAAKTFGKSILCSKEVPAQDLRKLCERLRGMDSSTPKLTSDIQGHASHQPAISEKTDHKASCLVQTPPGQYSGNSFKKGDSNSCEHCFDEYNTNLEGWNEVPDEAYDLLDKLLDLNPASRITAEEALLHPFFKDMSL

[24] = target: BDNF/NT-3 growth factors receptor (Homo sapiens, UniProt Q16620); assay type: functional;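 also: NTRK2 measured as one member of a broad kinome-wide kinase profiling panel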

Structure (SMILES): Cc1ccc(/C=C2/C(=O)c3ccc(C(=O)O)cc3C2=O)o1
IC50 [1]: > 128 µM (inactive)
IC50 [2]: 1.65 µM (active)

Ki [3]: 0.316 µM (active)
Ki [4]: > 1.58 µM (inactive)
Ki [5]: > 1.58 µM (inactive)
Ki [6]: > 10 µM (inactive)
Ki [7]: 6.31 µM (active)
Ki [8]: > 3.16 µM (inactive)
Ki [9]: > 2 µM (inactive)
Ki [10]: > 6.31 µM (inactive)
Ki [11]: 0.501 µM (active)
Ki (Misshapen-like kinase 1): 0.00631 µM (active)
Ki (Ephrin type-A receptor 2): > 3.16 µM (inactive)
Ki [12]: 1.58 µM (active)
Ki [13]: 1.26 µM (active)
Ki [14]: > 3.16 µM (inactive)
Ki [15]: > 2.51 µM (inactive)
Ki [16]: > 3.98 µM (inactive)
Ki [17]: 0.631 µM (active)
Ki [18]: > 1.58 µM (inactive)
Ki [19]: > 1.58 µM (inactive)
Ki [20]: > 3.98 µM (inactive)
Ki [21]: 0.501 µM (active)
Ki [22]: > 2 µM (inactive)
Ki (Activated CDC42 kinase 1): > 3.98 µM (inactive)
Ki [23]: 0.002 µM (active)
Ki [24]: > 5.01 µM (inactive)
Structure (SMILES): Clc1cc(NC2CCCCC2)nc(-c2c[nH]c3ncccc23)n1
